Assay results reported in patent US20260217748A1, “IBOGAINE AND N[…] AND METHODS OF USE” (Atai Therapeutics, Inc., priority 2022, published 2026).
pIC50: −log10 of the molar value. In brackets after ≈: the same amount, converted by molar mass.

Experiments:
hERG = hERG (Homo sapiens, UniProt Q12809); assay: hERG Binding assay
SERT = SERT (Homo sapiens, UniProt P31645); assay: SERT Cellular Functional assay; type: cell-based
PBS solubility = type: physicochemical; settings: aqueous buffer
Chrom logD = type: physicochemical
Microsome half-life RLM = type: in vitro ADME; settings: rat, liver microsomes

hERG, sequence (Q12809 whole entry): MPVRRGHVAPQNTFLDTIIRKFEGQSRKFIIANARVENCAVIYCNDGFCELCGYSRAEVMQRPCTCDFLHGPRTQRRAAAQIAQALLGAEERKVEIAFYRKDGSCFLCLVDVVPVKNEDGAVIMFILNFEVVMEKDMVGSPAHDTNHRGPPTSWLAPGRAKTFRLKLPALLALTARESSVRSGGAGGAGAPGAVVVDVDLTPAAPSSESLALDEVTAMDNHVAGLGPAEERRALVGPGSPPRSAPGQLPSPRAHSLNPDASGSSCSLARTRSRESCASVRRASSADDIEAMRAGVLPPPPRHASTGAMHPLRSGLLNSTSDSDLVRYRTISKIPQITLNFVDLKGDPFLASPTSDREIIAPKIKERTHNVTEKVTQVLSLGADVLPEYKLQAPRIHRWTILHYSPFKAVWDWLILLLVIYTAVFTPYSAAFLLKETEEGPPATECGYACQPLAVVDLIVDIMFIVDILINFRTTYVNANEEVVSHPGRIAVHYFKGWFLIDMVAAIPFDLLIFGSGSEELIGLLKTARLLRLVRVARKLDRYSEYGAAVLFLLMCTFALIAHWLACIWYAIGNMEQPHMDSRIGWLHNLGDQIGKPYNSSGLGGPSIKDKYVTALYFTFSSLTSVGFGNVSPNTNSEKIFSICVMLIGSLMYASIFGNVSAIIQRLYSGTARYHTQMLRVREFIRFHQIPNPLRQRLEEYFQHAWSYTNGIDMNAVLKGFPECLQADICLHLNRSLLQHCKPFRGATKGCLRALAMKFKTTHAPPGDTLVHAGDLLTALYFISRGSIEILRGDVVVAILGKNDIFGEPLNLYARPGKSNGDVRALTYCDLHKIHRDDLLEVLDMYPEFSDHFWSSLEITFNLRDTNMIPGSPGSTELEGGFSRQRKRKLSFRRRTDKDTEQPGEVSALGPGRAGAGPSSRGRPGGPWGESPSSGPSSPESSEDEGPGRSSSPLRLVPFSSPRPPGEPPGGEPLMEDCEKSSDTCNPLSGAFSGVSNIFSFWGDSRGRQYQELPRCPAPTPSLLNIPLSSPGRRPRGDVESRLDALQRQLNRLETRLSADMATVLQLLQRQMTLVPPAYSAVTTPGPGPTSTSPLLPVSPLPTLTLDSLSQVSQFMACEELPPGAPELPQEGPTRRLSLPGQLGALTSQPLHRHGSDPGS
SERT, sequence (P31645 whole entry, species assumed): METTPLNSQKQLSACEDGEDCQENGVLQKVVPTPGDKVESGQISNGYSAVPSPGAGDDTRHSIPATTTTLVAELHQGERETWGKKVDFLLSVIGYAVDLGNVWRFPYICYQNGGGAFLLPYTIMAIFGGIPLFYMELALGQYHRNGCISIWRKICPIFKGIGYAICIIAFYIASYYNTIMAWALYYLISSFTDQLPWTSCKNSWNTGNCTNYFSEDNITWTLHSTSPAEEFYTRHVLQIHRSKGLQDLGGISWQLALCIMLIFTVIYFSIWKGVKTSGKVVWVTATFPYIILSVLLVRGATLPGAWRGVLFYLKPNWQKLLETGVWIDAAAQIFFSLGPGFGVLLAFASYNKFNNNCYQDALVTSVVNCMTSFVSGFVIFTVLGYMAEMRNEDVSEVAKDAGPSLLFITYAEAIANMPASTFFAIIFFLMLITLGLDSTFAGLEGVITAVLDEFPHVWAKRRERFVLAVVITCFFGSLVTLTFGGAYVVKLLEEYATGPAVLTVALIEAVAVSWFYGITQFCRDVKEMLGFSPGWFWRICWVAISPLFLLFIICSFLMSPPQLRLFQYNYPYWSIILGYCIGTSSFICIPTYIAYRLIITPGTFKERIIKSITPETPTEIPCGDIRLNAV

In the case of `CC[C@H]1CC2C[C@H]3c4[nH]c5ccc(OC(C)OC)cc5c4CC[N@@](C2)C13` (stereo partly drawn) [Compound 3, (6R,7S,9S,11S)-7-ethyl-2-(1-methoxyethoxy)-6,6a,7,8,9,10,12,13-octahydro-5H-6,9-methanopyrido[1′,2′:1,2]azepino[4,5-b]indole], the pIC50 (hERG) was < 5.00, the pIC50 (SERT) was 4.92 and the solubility (PBS solubility) was 245 µM (≈ 86.9 µg/mL). The chromatographic logD (Chrom logD) was 4.9, the half-life (Microsome half-life RLM; +NADPH) was 4 min and the half-life (Microsome half-life RLM; −NADPH) was > 200 min.
